In brackets after ≈: the same amount, converted by molar mass. Several values for one entry are separate records, joined by “and”; a condition that tells them apart may be missing. Identical values can stand only once. Like-named read-outs stand apart in the source and are kept apart here. Residues, ends and D or L forms follow the SMILES beside them.
Assays:
P. aeruginosa ATCC 27853 [1] = test: Neutropenic mouse bloodstream infection model; assay type: in vivo; conditions: single IV dose 4 mg/kg; for Log10 CFU/mL blood at 4 h, Mean / Δlog10 CFU/mL blood (mean) / Log10 CFU/mL blood at 4 h, single mouse: 4 h; for Δlog10 CFU/mL blood (mean): treated minus control, mean of replicates; for Δlog10 CFU/mL blood (mean) / Log10 CFU/mL blood at 4 h, single mouse / Delta Log10 CFU/mL blood at 4 h, single mouse: 4 mg/kg; for Delta Log10 CFU/mL blood at 4 h, single mouse: treated mouse minus mean of vehicle mice
Procedure, shortened: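 Female Swiss mice made neutropenic with cyclophosphamide (150 mg/kg day −4, 100 mg/kg day −1), infected IV with 50 µL of 4 × 10^8 CFU/mL. Lipopeptide 4 mg/kg (free base) IV at 2 h post-inoculation, n = 3. Efficacy = Δlog10 CFU/mL blood versus saline at 4 h post-dose.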

Swiss mice, kidney = test: Nephrotoxicity in mice (kidney histopathology); assay type: in vivo, mouse; conditions: for Kidney histopathology (SQS Score): n = 3
Procedure, shortened: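 Female Swiss mice (7-week-old, 22–28 g) received lipopeptides in saline either s.c. at 12 mg/kg ×6 every 2 h (total 72 mg/kg, n = 3) or i.p. at 20 or 25 mg/kg ×6 every 2 h (total 120 mg/kg, n = 6; 150 mg/kg, n = 3). Right kidney collected 20 h after last dose, fixed in 10% buffered formalin (pH 7.4), histology scored blinded.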

A. baumannii ATCC 19606 = assay type: cell-based, Acinetobacter baumannii
Procedure, shortened: (§1)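 Each strain is tested in cation-adjusted Mueller–Hinton broth using the micro-dilution technique, and growth inhibition gives the MIC.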

A. baumannii FADDI-AB030 = assay type: cell-based, Acinetobacter baumannii
Procedure, shortened: (§2)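 Cation-adjusted Mueller–Hinton broth was used with the broth microdilution method to set MICs against clinical isolates. A separate run on P. aeruginosa ATCC 27853 added 10% Survanta® (v/v, 2.5 mg/mL phospholipids) to gauge lung-surfactant binding of polymyxins.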

A. baumannii FADDI-AB034 = assay type: cell-based, Acinetobacter baumannii
Procedure, shortened: as §2

P. aeruginosa ATCC 27853 [2] = assay type: cell-based, Pseudomonas aeruginosa
Procedure, shortened: as §1

[3] = test system: P. aeruginosa FADDI-PA025; assay type: cell-based, Pseudomonas aeruginosa
Procedure, shortened: as §2

[4] = test system: P. aeruginosa FADDI-PA038; assay type: cell-based, Pseudomonas aeruginosa
Procedure, shortened: as §2

[5] = test system: K. pneumoniae FADDI-KP032; assay type: cell-based, Klebsiella pneumoniae
Procedure, shortened: as §2

[6] = test system: K. pneumoniae FADDI-KP065; assay type: cell-based, Klebsiella pneumoniae
Procedure, shortened: as §2

[7] = 72 mg/kg/d subcutaneously in six divided doses every 2 h

Row | SMILES | Log10 CFU/mL blood at 4 h, Mean (P. aeruginosa ATCC 27853 [1]) [Log10 CFU/mL blood] | Δlog10 CFU/mL blood (mean) (P. aeruginosa ATCC 27853 [1]) [log10 CFU/mL blood] | Log10 CFU/mL blood at 4 h, single mouse (P. aeruginosa ATCC 27853 [1]) | Delta Log10 CFU/mL blood at 4 h, single mouse (P. aeruginosa ATCC 27853 [1]) | Kidney histopathology (SQS Score) (Swiss mice, kidney; [7]) | Kidney histopathology, mice with the SQS score (Swiss mice, kidney; mouse, in vivo) | MIC A. baumannii ATCC 19606 (A. baumannii ATCC 19606; ATCC 19606) [µg/mL] | MIC A. baumannii FADDI-AB030 (A. baumannii FADDI-AB030; FADDI-AB030) [µg/mL] | MIC A. baumannii FADDI-AB034 (A. baumannii FADDI-AB034; FADDI-AB034) [µg/mL] | MIC P. aeruginosa ATCC 27853 (P. aeruginosa ATCC 27853 [2]; ATCC 27853) [µg/mL] | MIC P. aeruginosa FADDI-PA025 ([3]; FADDI-PA025) [µg/mL] | MIC P. aeruginosa FADDI-PA038 ([4]; FADDI-PA038) [µg/mL] | MIC K. pneumoniae FADDI-KP032 ([5]; FADDI-KP032) [µg/mL] | MIC K. pneumoniae FADDI-KP065 ([6]; FADDI-KP065) [µg/mL] | further results
1 | CC[C@@H]1NC(=O)[C@@H](CC(C)C)NC(=O)[C@H](CCN)NC(=O)[C@@H](NC(=O)[C@H](CN)NC(=O)[C@@H](NC(=O)[C@H](CCN)NC(=O)c2cccc(Cl)c2)[C@@H](C)O)CCNC(=O)[C@H]([C@@H](C)O)NC(=O)[C@H](CCN)NC(=O)[C@H](CCN)NC1=O [Lipopeptide F371] (HELM PEPTIDE1{[O=C(c1cccc(Cl)c1)[*:2]].[Dab].T.[NC[C@H](N[*:1])C(=O)[*:2]].[Dab].[Dab].[dL].[Abu].[Dab].[Dab].T}$PEPTIDE1,PEPTIDE1,5:R3-11:R2$$$V2.0) | 4.61 | −3.33 | 4.74 Log10 CFU/mL blood and 4.86 Log10 CFU/mL blood and 4.22 Log10 CFU/mL blood | -3.20 Log10 CFU/mL blood and -3.08 Log10 CFU/mL blood and -3.71 Log10 CFU/mL blood | 0 (SQS 0 = no significant change (overall score, <1)) | – | – | – | – | – | – | – | – | – | Kidney histopathology, mice with the SQS score (Swiss mice, kidney; [7]): 3/3; MIC A. baumannii ATCC 19606 (A. baumannii ATCC 19606): 4 µg/mL (≈ 3.55 µM); MIC A. baumannii FADDI-AB030 (A. baumannii FADDI-AB030; carbapenem-resistant isolate): 1 µg/mL (≈ 0.888 µM); MIC A. baumannii FADDI-AB034 (A. baumannii FADDI-AB034; carbapenem-resistant isolate): 1 µg/mL (≈ 0.888 µM); MIC P. aeruginosa ATCC 27853 (P. aeruginosa ATCC 27853 [2]): 0.5 µg/mL (≈ 0.444 µM); MIC P. aeruginosa FADDI-PA025 ([3]; MDR clinical isolate): 1 µg/mL (≈ 0.888 µM); MIC P. aeruginosa FADDI-PA038 ([4]; carbapenem-resistant isolate): 2 µg/mL (≈ 1.78 µM); MIC K. pneumoniae FADDI-KP032 ([5]; carbapenem-resistant isolate): 0.5 µg/mL (≈ 0.444 µM); MIC K. pneumoniae FADDI-KP065 ([6]; carbapenem-resistant isolate): 1 µg/mL (≈ 0.888 µM)
2 | CC[C@@H]1NC(=O)[C@@H](CC(C)C)NC(=O)[C@H](CCN)NC(=O)[C@@H](NC(=O)[C@H](CN)NC(=O)[C@@H](NC(=O)[C@H](CCN)NC(=O)c2ccc(Cl)cc2)[C@@H](C)O)CCNC(=O)[C@H]([C@@H](C)O)NC(=O)[C@H](CCN)NC(=O)[C@H](CCN)NC1=O [Lipopeptide F378] (HELM PEPTIDE1{[O=C(c1ccc(Cl)cc1)[*:2]].[Dab].T.[NC[C@H](N[*:1])C(=O)[*:2]].[Dab].[Dab].[dL].[Abu].[Dab].[Dab].T}$PEPTIDE1,PEPTIDE1,5:R3-11:R2$$$V2.0) | 4.71 | −3.23 | 4.78 Log10 CFU/mL blood and 4.64 Log10 CFU/mL blood | -3.16 Log10 CFU/mL blood and -3.30 Log10 CFU/mL blood | 0 (SQS 0 = no significant change (overall score, <1)) | 3/3 | 1 (≈ 0.888 µM) | 1 (≈ 0.888 µM) | 0.25 (≈ 0.222 µM) | 0.5 (≈ 0.444 µM) | 2 (≈ 1.78 µM) | 1 (≈ 0.888 µM) | 0.25 (≈ 0.222 µM) | 1 (≈ 0.888 µM) | –
3 | CC[C@@H]1NC(=O)[C@@H](CC(C)C)NC(=O)[C@H](CCN)NC(=O)[C@@H](NC(=O)[C@H](CN)NC(=O)[C@@H](NC(=O)[C@H](CCN)NC(=O)c2ccc(C)cc2)[C@@H](C)O)CCNC(=O)[C@H]([C@@H](C)O)NC(=O)[C@H](CCN)NC(=O)[C@H](CCN)NC1=O [Lipopeptide F383] (HELM PEPTIDE1{[Cc1ccc(C(=O)[*:2])cc1].[Dab].T.[NC[C@H](N[*:1])C(=O)[*:2]].[Dab].[Dab].[dL].[Abu].[Dab].[Dab].T}$PEPTIDE1,PEPTIDE1,5:R3-11:R2$$$V2.0) | 4.91 | −3.02 | 5.76 Log10 CFU/mL blood and 4.40 Log10 CFU/mL blood and 4.59 Log10 CFU/mL blood | -2.18 Log10 CFU/mL blood and -3.54 Log10 CFU/mL blood and -3.35 Log10 CFU/mL blood | 0 (SQS 0 = no significant change (overall score, <1)) | 3/3 | 2 (≈ 1.81 µM) | 2 (≈ 1.81 µM) | 2 (≈ 1.81 µM) | 0.5 (≈ 0.452 µM) | 2 (≈ 1.81 µM) | 1 (≈ 0.905 µM) | 1 (≈ 0.905 µM) | 1 (≈ 0.905 µM) | –
4 | CC[C@@H]1NC(=O)[C@@H](CC(C)C)NC(=O)[C@H](CCN)NC(=O)[C@@H](NC(=O)[C@H](CN)NC(=O)[C@@H](NC(=O)[C@H](CCN)NC(=O)c2ccc(Cl)cc2F)[C@@H](C)O)CCNC(=O)[C@H]([C@@H](C)O)NC(=O)[C@H](CCN)NC(=O)[C@H](CCN)NC1=O [Lipopeptide F448] (HELM PEPTIDE1{[O=C(c1ccc(Cl)cc1F)[*:2]].[Dab].T.[NC[C@H](N[*:1])C(=O)[*:2]].[Dab].[Dab].[dL].[Abu].[Dab].[Dab].T}$PEPTIDE1,PEPTIDE1,5:R3-11:R2$$$V2.0) | 4.51 | −3.06 | 4.51 Log10 CFU/mL blood and 4.31 Log10 CFU/mL blood and 4.72 Log10 CFU/mL blood | -3.07 Log10 CFU/mL blood and -3.27 Log10 CFU/mL blood and -2.85 Log10 CFU/mL blood | 0 (SQS 0 = no significant change (overall score, <1)) | 3/3 | 2 (≈ 1.75 µM) | 1 (≈ 0.874 µM) | 0.5 (≈ 0.437 µM) | 0.5 (≈ 0.437 µM) | 1 (≈ 0.874 µM) | 0.5 (≈ 0.437 µM) | <0.125 | 0.25 (≈ 0.219 µM) | –
